The target of one assay is T1, cloned human dopamine D3 receptors (Homo sapiens, UniProt P35462).
T1 construct: expressed in transfected cells; membrane homogenate
T1 sequence (P35462 whole entry): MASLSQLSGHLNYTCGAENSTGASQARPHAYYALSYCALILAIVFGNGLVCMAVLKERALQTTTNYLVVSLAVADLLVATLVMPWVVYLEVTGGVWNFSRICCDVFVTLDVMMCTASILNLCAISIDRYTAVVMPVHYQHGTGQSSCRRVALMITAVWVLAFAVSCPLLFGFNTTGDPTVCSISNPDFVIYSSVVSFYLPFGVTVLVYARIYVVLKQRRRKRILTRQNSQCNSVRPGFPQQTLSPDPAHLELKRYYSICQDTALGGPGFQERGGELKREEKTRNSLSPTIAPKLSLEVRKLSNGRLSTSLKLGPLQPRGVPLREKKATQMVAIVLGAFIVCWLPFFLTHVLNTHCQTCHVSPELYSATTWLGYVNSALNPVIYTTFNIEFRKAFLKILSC
Kind of assay: [N-Methyl-3H]Spiroperidol binding to cloned human dopamine D3 receptors. As to conditions: read-out: D3 Ki. In short, it runs like this:
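Radioligand displacement with [N-methyl-3H]spiroperidol was run on membranes from a high-expressing CHO clone carrying human D3. Membranes were prepared in 10% DMSO and stored at −80° C.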
For `CCC1CCC(NC(=O)C2CC2CN2CCC(Cc3ccccc3)CC2)CC1` (racemic) [compound 827248], the Ki is 19.4 nM.
Same read-out and setting: under `CCN1CCC(NC(=O)C2CC2CN2CCC(c3noc4ccsc34)CC2)CC1` (racemic) [compound 833372] stands 1.04 nM.
Same read-out and setting: under `O=C([C@@H]1C[C@H]1CN1CCC(c2noc3ccsc23)CC1)N1CCC(O)CC1` [compound 830250] stands 48.6 nM; under `C[C@H]1CC[C@H](NC(=O)[C@@H]2C[C@H]2CN2CCC(c3nn(-c4cccnc4)c4ccccc34)CC2)CC1` [compound 833695], 176 nM; under `O=C(NC1CCN(CC2CCCCC2)CC1)[C@@H]1C[C@H]1CN1CCN(c2nn(-c3ccc(OC(F)(F)F)cc3)c3ccsc23)CC1` [A002437084], 7.11 nM.
The same measure, in the same setting: under `O=C(NCC1CCNCC1)[C@@H]1C[C@H]1CN1CCC(c2nn(-c3ccccc3)c3ccsc23)CC1` [A002440436A] stands 11.4 nM; under `COc1ccccc1CN1CCC(NC(=O)[C@@H]2C[C@H]2CN2CCN(c3csc4cc(C(F)(F)F)ccc34)CC2)CC1` [compound 832739], 2.89 nM.
On to `O=C([C@@H]1C[C@H]1CN1CCC(c2csc3cc(C(F)(F)F)ccc23)CC1)N1CCCC(Cn2ccnc2)C1` (mixture of isomers) [A002287512], for which the Ki worked out at 0.647 nM.
Still for that read-out and setting: under `O=C(NC1CCN(CC2CCCCC2)CC1)[C@@H]1C[C@H]1CN1CCC(c2noc3ccsc23)CC1` [compound 832733] stands 0.656 nM; under `O=C(NCCCc1cc[nH]c1)C1CC1CN1CCC(c2noc3ccsc23)CC1` (racemic) [compound 832192], 7.81 nM; under `Cn1nc(N2CCN(C[C@@H]3C[C@H]3C(=O)N[C@H]3CC[C@H](C)CC3)CC2)c2ccccc21` [compound 833702], 0.495 nM.
Same read-out and setting: under `O=C(NCC1CCNCC1)[C@@H]1C[C@H]1CN1CCC(c2nn(CC(F)(F)F)c3ccsc23)CC1` [A002440435A] stands 305 nM; under `COc1ccc2c(c1)c(N1CCN(C[C@@H]3C[C@H]3C(=O)NCCCc3ccccc3)CC1)nn2-c1ccc(C(F)(F)F)cc1` [compound 831314], 133 nM; under `O=C([C@@H]1C[C@H]1CN1CCN(c2csc3cc(C(F)(F)F)ccc23)CC1)N1CCCC(CN2CCCNCC2)C1` (mixture of isomers) [A002437358], 8.86 nM.
Regarding `O=C(NC1CCNCC1)[C@@H]1C[C@H]1CN1CCC(c2csc3cc(C(F)(F)F)ccc23)CC1` [A002287513], the Ki came out at 3.57 nM.
Still for that read-out and setting: the figure for `O=C(NCc1ccc(-c2ccccc2)cc1)C1CC1CN1CCC(c2noc3ccsc23)CC1` (racemic) [compound 831455] is 6.79 nM.
On to `CCC1CCC(NC(=O)C2CC2CN2CCN(c3nn(-c4ccc(C(F)(F)F)cc4)c4ccccc34)CC2)CC1` (racemic) [compound 830046], for which the Ki was 16.5 nM.
`O=C(NCCc1c[nH]c2ccccc12)[C@@H]1C[C@H]1CN1CCC(c2noc3ccsc23)CC1` [compound 830830]: the Ki came out at 2.58 nM.
`O=C(NCCc1ccc(Cl)cc1)C1CC1CN1CCC(c2noc3ccsc23)CC1` (racemic) [compound 831800]: the Ki turned out to be 5 nM.

Another assay has as its target T2, cloned human alpha-1A adrenergic receptors (α1a) (Homo sapiens, UniProt P35348).
T2 construct: expressed in transfected cells; membranes
T2 sequence (P35348 1-466): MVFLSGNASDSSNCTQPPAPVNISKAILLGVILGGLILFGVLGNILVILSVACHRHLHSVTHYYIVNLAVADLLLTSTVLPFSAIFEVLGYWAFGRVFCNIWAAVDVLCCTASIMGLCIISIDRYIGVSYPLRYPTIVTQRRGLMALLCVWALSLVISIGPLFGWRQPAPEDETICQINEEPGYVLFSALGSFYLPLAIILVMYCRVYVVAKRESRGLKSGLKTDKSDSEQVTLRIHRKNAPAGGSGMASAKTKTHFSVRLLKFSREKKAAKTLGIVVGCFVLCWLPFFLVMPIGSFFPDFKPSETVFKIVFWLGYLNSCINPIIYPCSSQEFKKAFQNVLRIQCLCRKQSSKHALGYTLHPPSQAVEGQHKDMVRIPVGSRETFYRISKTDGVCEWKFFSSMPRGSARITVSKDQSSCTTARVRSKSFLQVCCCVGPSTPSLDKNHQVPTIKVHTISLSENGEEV
As to the kind of experiment: [3H]Prazosin binding to cloned human alpha-1A adrenergic receptors expressed in CHO cells. As to conditions: read-out: halpha1Ki (nM) h = human. From the text:
^3H]Prazosin Binding to Cloned Human Alpha-1A Adrenergic Receptors (α1a) Expressed in Chinese Hamster Ovary Cells (CHO)
• Purpose: This in vitro assay is designed as a screen to identify compounds displaying a affinity for the human α1a adrenoceptor subtype expressed in the membrane fragments of CHO cells. The assay measures the ability of the test compounds to displace [^3H] prazosin from α1a sites. • The identification of multiple vascular α1-addrenoceptors (α1a, α1b, α1d) in vitro has provided impetus to define the role(s) of these subtypes in cardiovascular regulation in vivo (Vargas and Gorman, 1995). […] Prazosin is a potent antagonist of the human α1a-adrenoceptor subtype, which has been cloned and is expressed in the membrane fragments of CHO cells. • hα1a receptor: The cloning of the human α1a cDNA was accomplished first by screening a human prostate cDNA library (Clontech), from which a portion of the coding region was obtained. This DNA fragment was then used to screen a human leukocyte genomic library (Clontech), and the rest of the coding sequence was obtained. Later these two fragments were spliced together. The entire coding sequence was then fully sequenced including matching PCR sequence with original genomic coding sequence, thus ensuring splice sites were joined correctly (Schwinn et al., 1995). Once sequenced, the gene was subcloned into the expression vector pcDNA3 (Invitrogen). Plasmid DNA was then used for transfection into CHO cells and G418 resistant clones were isolated. A clone expressing high levels of the hα1a receptor (as determined by mRNA and receptor binding data) was chosen and pharmacologically characterized. • Culture Media Ingredients for Adherent α1a expressing CHO Culture: • A. HAM's F-12 (Celigro) • B. 10% 0.2 micron filtered Fetal Bovine Serum (FBS)(Celigro) • C. 1% 0.2 micron filtered Penicillin-Streptomycin (Celigro) • D. G418 0.2 micron filtered (Geneticin 400 μg/ml)(Celigro) • Cells are cultured using established methods and procedures in either 150×25 mm culture plates (scale up to 100 plates) or a combination of these plates and 70 roller bottles. One culturing/harvest cycle typically requires 2 weeks and yields between 100-400 mg protein. Plates or bottles are incubated at 37° C.+5% CO2. • Storage: Cells are harvested by mechanical scraping, washed using PBS, collected in 250 ml Corning polypropylene centrifuge tubes, spun down (1500 RPM) and resuspended in dH2O 10% DMSO (final volume per harvest is approximately 50 ml). Protein determination is made using the Biorad DC Assay Kit. Finally, the appropriate volume is aliquoted into a 2 ml Corning Cryovial (10 mg/1-1.5 ml) which is stored at −80° C.
• Assay Requirement: 0.5 cryovials per 96 well plate (assay volume=200 μl/well) • [^3H]-Ligand: [7-methoxy-^3H]-Prazosin: 1.0 nM (NEN, NET-823) • 70-87 Ci/mmol • Materials: Phentolamine mesylate (Research Biochemicals Int. #P-131) • 96 well flat bottom plates (Beckman) • Unifilter GF/B Plate (Packard) • Polyethylenimine (Sigma #P-3134) • TomTec or Packard Filtermate 196 Cell Harvesters • Packard TopCount Scintillation Counter • Buffers: A: 50 mM Tris HCl; 0.1% ascorbate, pH 7.7 (incubation buffer) • B: 50 mM Tris HCl; pH 7.7 (wash buffer) • Procedure: Assay additions are as follows (in the order indicated): • Total Binding=50 μl buffer A+50 μl [^3H]prazosin+100 μl membrane • Nonsp. Bd.=50 μl 10 μM phentolamine+50 μl [^3H]prazosin+100 μl membrane • Test Cpd.=50 μl compound+50 μl [^3H]prazosin+100 μl membrane • Compounds to be evaluated are weighed out to yield a 10 mM stock solution in DMSO in a 24 well polystyrene plate. This is diluted to a 0.5 mM stock in dH2O, Serial dilutions in Buffer A are made from which 50 μl additions to the plate are made in duplicate in order to achieve the final concentrations desired. Typically, one 96 well plate is used to evaluate 11 compounds at 4 concentrations (10^−6-10^−9 M) in duplicate. Total binding and nonspecific binding are determined in quadruplicate. […]
For `CC1(C)CCCN(C(=O)CCCN2CCN(c3csc4cc(F)ccc34)CC2)C1` (racemic) [compound 826857], the Ki came to 9.82 nM.
In the case of `CN(C)C1CCN(C(=O)CCCN2CCN(c3csc4cc(F)ccc34)CC2)C1` (stereo not drawn) [compound 826863], the Ki is 32.2 nM.

The values above are taken from patent US7772252B2, “Heterocyclic substituted carbonyl derivatives and their use as dopamine D3 receptor ligands” (Aventis Pharmaceuticals Inc., priority 2001, dated 2010).
